Data from PubChem BioAssay AID248 (DTP/NCI, 2004).
Several values for one entry are separate records, joined by “and”; a condition that tells them apart may be missing. Equal entries are not always repeated. Toxic doses and inconclusive results are not listed. Square brackets hold non-standard residues; d marks the D form. Peptide text beside a SMILES is read from it. * marks the point of attachment. ξ: configuration not given here. Cbz = O=C(OCc1ccccc1)*; ξNva = CCCC(N)C(=O)O

System: L1210 leukemia ip in BDF1 mice, survival T/C
Assay: NCI In Vivo Anticancer Drug Screen. Data for tumor model L1210 Leukemia (intraperitoneal) in B6D2F1 (BDF1) mice
Settings: endpoint: mean survival time, higher = longer survival
Procedure, shortened: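 Ratio derived from survival: compound-dosed mice over vehicle-dosed mice, all bearing a transplantable tumor.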

[1] = dose: 100.0 mg/kg/injection, schedule: Q01DX009 (ip), vehicle: Klucel (hydroxypropylcellulose) (HPC)
[2] = dose: 200.0 mg/kg/injection, schedule: Q01DX009 (ip), vehicle: Klucel (hydroxypropylcellulose) (HPC)
[3] = dose: 100.0 mg/kg/injection, schedule: Q04DX003 (ip), vehicle: saline with Tween-80
[4] = dose: 200.0 mg/kg/injection, schedule: Q04DX003 (ip), vehicle: saline with Tween-80
[5] = dose: 75.0 mg/kg/injection, schedule: Q01DX001 (ip), vehicle: saline
[6] = dose: 150.0 mg/kg/injection, schedule: Q01DX001 (ip), vehicle: saline
[7] = dose: 100.0 mg/kg/injection, schedule: Q01DX001 (ip), vehicle: Klucel (hydroxypropylcellulose) (HPC)
[8] = dose: 200.0 mg/kg/injection, schedule: Q01DX001 (ip), vehicle: Klucel (hydroxypropylcellulose) (HPC)
[9] = dose: 400.0 mg/kg/injection, schedule: Q01DX001 (ip), vehicle: Klucel (hydroxypropylcellulose) (HPC)
[10] = dose: 100.0 mg/kg/injection, schedule: Q04DX003 (ip), vehicle: Klucel (hydroxypropylcellulose) (HPC)
[11] = dose: 200.0 mg/kg/injection, schedule: Q04DX003 (ip), vehicle: Klucel (hydroxypropylcellulose) (HPC)
[12] = dose: 400.0 mg/kg/injection, schedule: Q04DX003 (ip), vehicle: Klucel (hydroxypropylcellulose) (HPC)

`O=C(O)C1C2CCCCCCC21` (stereo not given) was tested, and the T/C (dose: 50.0 mg/kg/injection, schedule: Q01DX009 (ip), vehicle: Klucel (hydroxypropylcellulose) (HPC)) was 108 % of control, the T/C (dose: 100.0 mg/kg/injection, schedule: Q01DX005 (ip), vehicle: Klucel (hydroxypropylcellulose) (HPC)) was 95 % of control and the T/C [1] was 108 % of control. The T/C (dose: 200.0 mg/kg/injection, schedule: Q01DX005 (ip), vehicle: Klucel (hydroxypropylcellulose) (HPC)) was 103 % of control and the T/C [2] was 97 % of control.

`CCCC(NC(=O)CNC(=O)CNC(=O)OCc1ccccc1)C(=O)OC` (stereo not drawn) (Cbz-Gly-Gly-[ξNva]-OMe) was tested, and the T/C [3] was 98 % of control, the T/C [4] was 97 % of control and the T/C (dose: 400.0 mg/kg/injection, schedule: Q04DX003 (ip), vehicle: saline with Tween-80) was 103 % of control.

With `CC1(C)N=C(N)N=C(N)N1c1ccc(OCCOc2ccc(S(=O)(=O)F)cc2)c(Cl)c1` the T/C (dose: 33.0 mg/kg/injection, schedule: Q04DX003 (ip), vehicle: Klucel (hydroxypropylcellulose) (HPC)) was 102 % of control, the T/C (dose: 33.0 mg/kg/injection, schedule: Q04DX003 (ip), vehicle: saline sonified) was 117 % of control and the T/C (dose: 50.0 mg/kg/injection, schedule: Q01DX009 (ip), vehicle: saline sonified) was 152 % of control. For the same molecule, the T/C (dose: 50.0 mg/kg/injection, schedule: Q04DX003 (ip), vehicle: Klucel (hydroxypropylcellulose) (HPC)) was 112 % of control, the T/C (dose: 75.0 mg/kg/injection, schedule: Q04DX003 (ip), vehicle: Klucel (hydroxypropylcellulose) (HPC)) was 112 % of control and the T/C (dose: 75.0 mg/kg/injection, schedule: Q04DX003 (ip), vehicle: saline sonified) was 113 % of control. The T/C (dose: 100.0 mg/kg/injection, schedule: Q01DX009 (ip), vehicle: saline sonified) was 109 % of control, the T/C (dose: 100.0 mg/kg/injection, schedule: Q04DX003 (ip), vehicle: other) was 96 % of control and the T/C (dose: 200.0 mg/kg/injection, schedule: Q04DX003 (ip), vehicle: other) was 103 % of control. The T/C (dose: 400.0 mg/kg/injection, schedule: Q04DX003 (ip), vehicle: other) was 96 % of control.

In the case of `COc1ccc(C(C(C(C)=O)C(C)=O)C(C(C)=O)C(C)=O)cc1`, the T/C [3] is reported as 100 % of control and the T/C [4] is reported as 93 % of control.

For `Oc1ccc(O)c2[nH]c(-c3ccccc3)cc12`, the T/C (dose: 6.25 mg/kg/injection, schedule: Q04DX002 (ip), vehicle: saline with Tween-80) was 97 % of control and the T/C (dose: 12.5 mg/kg/injection, schedule: Q04DX002 (ip), vehicle: saline with Tween-80) was 97 % of control.

For `CCCCCCC(/C=N/N=C(N)N)=N\N=C(N)N`, the T/C (dose: 15.0 mg/kg/injection, schedule: Q01DX Z (ip), vehicle: carboxymethylcellulose (CMC)) was 100 % of control, the T/C (dose: 15.0 mg/kg/injection, schedule: Q01DX Z (oral), vehicle: carboxymethylcellulose (CMC)) was 101 % of control and the T/C (dose: 30.0 mg/kg/injection, schedule: Q01DX Z (ip), vehicle: carboxymethylcellulose (CMC)) was 95 % of control. For the same molecule, the T/C (dose: 30.0 mg/kg/injection, schedule: Q01DX Z (oral), vehicle: carboxymethylcellulose (CMC)) was 93 % of control and the T/C (dose: 60.0 mg/kg/injection, schedule: Q01DX Z (oral), vehicle: carboxymethylcellulose (CMC)) was 109 % of control.

For `Nc1cncnc1`, the T/C (dose: 50.0 mg/kg/injection, schedule: Q01DX001 (ip), vehicle: saline) was 112 % of control, the T/C (dose: 100.0 mg/kg/injection, schedule: Q01DX001 (ip), vehicle: saline) was 107 % of control and the T/C (dose: 200.0 mg/kg/injection, schedule: Q01DX001 (ip), vehicle: saline) was 98 % of control. The T/C (dose: 400.0 mg/kg/injection, schedule: Q01DX001 (ip), vehicle: saline) was 102 % of control.

With `CN(C)C(=S)SC(=S)N(C)C` the T/C (dose: 25.0 mg/kg/injection, schedule: Q04DX002 (ip), vehicle: Klucel (hydroxypropylcellulose) (HPC)) was 106 % of control, the T/C (dose: 50.0 mg/kg/injection, schedule: Q04DX002 (ip), vehicle: Klucel (hydroxypropylcellulose) (HPC)) was 100 % of control and the T/C (dose: 100.0 mg/kg/injection, schedule: Q04DX002 (ip), vehicle: Klucel (hydroxypropylcellulose) (HPC)) was 89 % of control. For the same molecule, the T/C (dose: 200.0 mg/kg/injection, schedule: Q04DX002 (ip), vehicle: Klucel (hydroxypropylcellulose) (HPC)) was 91 % of control and the T/C (dose: 400.0 mg/kg/injection, schedule: Q04DX002 (ip), vehicle: Klucel (hydroxypropylcellulose) (HPC)) was 98 % of control.

With `O=c1c(O)c(-c2ccc(Cl)cc2)oc2cc(O)ccc12` the T/C (dose: 100.0 mg/kg/injection, schedule: Q01DX001 (ip), vehicle: other) was 101 % of control, the T/C (dose: 200.0 mg/kg/injection, schedule: Q01DX001 (ip), vehicle: other) was 101 % of control and the T/C (dose: 400.0 mg/kg/injection, schedule: Q01DX001 (ip), vehicle: other) was 93 % of control.

`Cc1cc(C)[n+]2ccccc2n1` was tested, and the T/C [5] was 102 % of control and the T/C [6] was 98 % of control.

In the case of `COc1ccc2c(ccc3ccc4ccccc4c32)c1`, the T/C [7] is reported as 105 % of control, the T/C [8] is reported as 102 % of control and the T/C [9] is reported as 100 % of control.

With `CC(=O)Nc1ccc(OC(=S)N(C)C)cc1` the T/C [10] was 96 % of control, the T/C [11] was 97 % of control and the T/C [12] was 101 % of control.

With `CCC(/C=C/C(C)C1CCC2C3CC=C4CC(O)CCC4(C)C3CCC12C)C(C)C` (stereo not given) (tested in a mixture with another compound) the T/C (dose: 100.0 mg/kg/injection, schedule: Q01DX001 (ip), vehicle: water) was 98 % of control, the T/C [3] was 89 % of control and the T/C (dose: 100.0 mg/kg/injection, schedule: Q04DX003 (ip), vehicle: saline) was 103 % of control. The T/C (dose: 200.0 mg/kg/injection, schedule: Q01DX001 (ip), vehicle: water) was 105 % of control and 94 % of control, the T/C (dose: 200.0 mg/kg/injection, schedule: Q04DX003 (ip), vehicle: saline) was 91 % of control and the T/C (dose: 400.0 mg/kg/injection, schedule: Q04DX003 (ip), vehicle: saline) was 91 % of control.

`O=C(/C=C/c1ccccc1)N(c1ccccc1)C1CCCCC1` was tested, and the T/C [10] was 112 % of control, the T/C [11] was 89 % of control and the T/C [12] was 88 % of control.

For `O=C1c2cc(Cl)ccc2-c2c(NC(=O)C(Cl)Cl)cc(Cl)cc21`, the T/C (dose: 100.0 mg/kg/injection, schedule: Q01DX001 (ip), vehicle: carboxymethylcellulose (CMC)) was 91 % of control, the T/C (dose: 200.0 mg/kg/injection, schedule: Q01DX001 (ip), vehicle: carboxymethylcellulose (CMC)) was 93 % of control and the T/C (dose: 400.0 mg/kg/injection, schedule: Q01DX001 (ip), vehicle: carboxymethylcellulose (CMC)) was 96 % of control.

`CC12CC3CC(C)(C1)CC(SCCN)(C3)C2` was tested, and the T/C (dose: 100.0 mg/kg/injection, schedule: Q04DX002 (ip), vehicle: saline) was 97 % of control and the T/C (dose: 200.0 mg/kg/injection, schedule: Q04DX002 (ip), vehicle: saline) was 97 % of control.

With `CCCCCCCCCCCCCCCCCC(=O)N/N=C/c1cc(OC)ccc1OC` the T/C [1] was 89 % of control, the T/C [2] was 86 % of control and the T/C (dose: 400.0 mg/kg/injection, schedule: Q01DX009 (ip), vehicle: Klucel (hydroxypropylcellulose) (HPC)) was 96 % of control.

With `N#Cc1nccnc1C#N` the T/C (dose: 25.0 mg/kg/injection, schedule: Q04DX002 (ip), vehicle: DMSO) was 96 % of control, the T/C (dose: 50.0 mg/kg/injection, schedule: Q04DX002 (ip), vehicle: DMSO) was 100 % of control and the T/C (dose: 100.0 mg/kg/injection, schedule: Q04DX002 (ip), vehicle: DMSO) was 100 % of control.

`Cc1nc2ccc(Cl)c(Cl)c2s1` was tested, and the T/C (dose: 100.0 mg/kg/injection, schedule: Q01DX001 (ip), vehicle: saline with Tween-80) was 106 % of control, the T/C (dose: 200.0 mg/kg/injection, schedule: Q01DX001 (ip), vehicle: saline with Tween-80) was 104 % of control and the T/C (dose: 400.0 mg/kg/injection, schedule: Q01DX001 (ip), vehicle: saline with Tween-80) was 100 % of control.

In the case of `CNCCN(C)CCN(C)Cc1ccc(OC)cc1`, the T/C (dose: 25.0 mg/kg/injection, schedule: Q01DX009 (ip), vehicle: water) is reported as 105 % of control, the T/C (dose: 50.0 mg/kg/injection, schedule: Q01DX009 (ip), vehicle: water) is reported as 102 % of control and the T/C (dose: 100.0 mg/kg/injection, schedule: Q01DX009 (ip), vehicle: water) is reported as 100 % of control. For the same molecule, the T/C (dose: 200.0 mg/kg/injection, schedule: Q01DX009 (ip), vehicle: water) was 107 % of control.

In the case of `C=CC1(CCC(C)C)C(=O)NC(=O)NC1=O`, the T/C [5] is reported as 91 % of control, the T/C [6] is reported as 105 % of control and the T/C (dose: 300.0 mg/kg/injection, schedule: Q01DX001 (ip), vehicle: saline) is reported as 98 % of control.

With `C=CCOc1nc(SC)ncc1C(=O)O` the T/C [7] was 97 % of control, the T/C [8] was 97 % of control and the T/C [9] was 91 % of control.
